What was measured:
Canis familiaris [1] = assay: Compound was evaluated for protection against cisplatin-induced emesis by measuring number of retches in dogs administered intravenously at 0.03 mg/kg; assay type: functional, Canis lupus familiaris; conditions: route intravenous
Canis familiaris [2] = assay: Compound was evaluated for protection against cisplatin-induced emesis by measuring number of emetic episodes in dogs administered perorally at 0.3 mg/kg; assay type: functional, Canis lupus familiaris; conditions: route oral
Canis familiaris [3] = assay: Compound was evaluated for protection against cisplatin-induced emesis by measuring number of emetic episodes in dogs administered perorally at 1.0 mg/kg; assay type: functional, Canis lupus familiaris; conditions: route oral
Canis familiaris [4] = assay: No. of emetic episodes in dogs when administered perorally at 3.0 mg/kg; assay type: functional, Canis lupus familiaris; conditions: route oral
Canis familiaris [5] = assay: Compound was evaluated for protection against cisplatin-induced emesis by measuring number of retches in dogs administered intravenously at 0.1 mg/kg.; assay type: functional, Canis lupus familiaris; conditions: route intravenous
Canis familiaris [6] = assay: Compound was evaluated for protection against cisplatin-induced emesis by measuring number of retches in dogs administered perorally at 0.3 mg/kg; assay type: functional, Canis lupus familiaris; conditions: route oral
Canis familiaris [7] = assay: Compound was evaluated for protection against cisplatin-induced emesis by measuring number of retches in dogs administered perorally at 1.0 mg/kg; assay type: functional, Canis lupus familiaris; conditions: route oral
Canis familiaris [8] = assay: Compound was evaluated for protection against cisplatin-induced emesis by measuring number of retches in dogs administered perorally at 3.0 mg/kg; assay type: functional, Canis lupus familiaris; conditions: route oral
Canis familiaris [9] = assay: Compound was evaluated for protection against cisplatin-induced emesis by measuring number of retches in dogs administered intravenously at 0.3 mg/kg; assay type: functional, Canis lupus familiaris; conditions: route intravenous
Canis familiaris [10] = assay: Compound was evaluated for protection against cisplatin-induced emesis by measuring number of emetic episodes in dogs administered intravenously at 0.3 mg/kg; assay type: functional, Canis lupus familiaris; conditions: route intravenous
Canis familiaris [11] = assay: Compound was evaluated for protection against cisplatin-induced emesis by measuring number of emetic episodes in dogs administered intravenously at 0.03 mg/kg; assay type: functional, Canis lupus familiaris; conditions: route intravenous
Canis familiaris [12] = assay: Compound was evaluated for protection against cisplatin-induced emesis by measuring number of emetic episodes in dogs administered intravenously at 0.1 mg/kg; assay type: functional, Canis lupus familiaris; conditions: route intravenous
[13] = Compound was evaluated for protection against cisplatin-induced emesis by measuring number of retches in ferrets administered perorally at 0.1 mg/kg; assay type: functional, Mustela putorius furo; conditions: route oral
[14] = Compound was evaluated for protection against cisplatin-induced emesis by measuring number of retches in ferrets administered perorally at 0.3 mg/kg; assay type: functional, Mustela putorius furo; conditions: route oral
[15] = Compound was evaluated for protection against cisplatin-induced emesis by measuring number of retches in ferrets administered perorally at 1.0 mg/kg; assay type: functional, Mustela putorius furo; conditions: route oral
[16] = Compound was evaluated for number of emetic episodes in ferrets administered intravenously at 0.1 mg/kg; assay type: functional, Mustela putorius furo; conditions: route intravenous
[17] = Compound was evaluated for number of emetic episodes in ferrets administered intravenously at 0.3 mg/kg; assay type: functional, Mustela putorius furo; conditions: route intravenous
[18] = Compound was evaluated for number of emetic episodes in ferrets administered intravenously at 1.0 mg/kg; assay type: functional, Mustela putorius furo; conditions: route intravenous
Mustela putorius furo [19] = assay: Compound was evaluated for number of emetic episodes in ferrets administered perorally at 0.1 mg/kg; assay type: functional; conditions: route oral
Mustela putorius furo [20] = assay: Compound was evaluated for number of emetic episodes in ferrets administered perorally at 0.3 mg/kg; assay type: functional; conditions: route oral
Mustela putorius furo [21] = assay: Compound was evaluated for number of emetic episodes in ferrets administered perorally at 1.0 mg/kg; assay type: functional; conditions: route oral
Rattus norvegicus = assay: Inhibitory activity against Bezold-jarisch functional assay, inducing a transient bradycardia upon intravenous administration of 5-hydroxytryptamine-(10 ug/kg) in anesthetized rats.; conditions: read-out: ID50 (the source's name)
Mus musculus = assay: Acute lethal toxicity in mouse at 8.4 mg/kg when administered intravenously; value = 5/10; assay type: organism-based; parameters: dose 8.4 mg/kg, route intravenous; conditions: in vivo, iv

Cc1nccn1CC1CCc2c(c3ccccc3n2C)C1=O (stereo unspecified) [ONDANSETRON]
No. of retches (Canis familiaris [1]): 118.8 | No. of emetic episodes (Canis familiaris [2]): 9 | No. of emetic episodes (Canis familiaris [3]): 2.8 | No. of emetic episodes (Canis familiaris [4]): 2 | No. of retches (Canis familiaris [5]): 9 | No. of retches (Canis familiaris [6]): 112.8 | No. of retches (Canis familiaris [7]): 29.8 | No. of retches (Canis familiaris [8]): 22.8 | No. of retches (Canis familiaris [9]): 35.4 | No. of emetic episodes (Canis familiaris [10]): 4.1 | No. of emetic episodes (Canis familiaris [11]): 10.5 | No. of emetic episodes (Canis familiaris [12]): 2.2 | No. of retches [13]: 125.3 | No. of retches [14]: 84.8 | No. of retches [15]: 39.5 | No. of emetic episodes [16]: 6.3 | No. of retches [16]: 114 | No. of emetic episodes [17]: 3.5 | No. of retches [17]: 42.5 | No. of emetic episodes [18]: 0 | No. of retches [18]: 2.5 | No. of emetic episodes (Mustela putorius furo [19]): 8.5 | No. of emetic episodes (Mustela putorius furo [20]): 6.3 | No. of emetic episodes (Mustela putorius furo [21]): 2.3 | ED50 (Rattus norvegicus): 0.86 µg/kg | Acute lethal toxicity (Mus musculus): Partially active
